Test results published in patent US20230278972A1, “SUBSTITUTED HALOALKYL SULFONANILIDE HERBICIDES” (FMC Corporation, priority 2020, published 2023).

Columns and labels:
rice (Oryza sativa) = assay: Test B1 flooded paddy test, rice; type: in vivo; conditions: 250 g ai/ha, Flood, applied to paddy water, 2-leaf stage, visually evaluated after 10 to 14 days
Description: A dash (-) response means no test result.

corn (Zea mays) = assay: Test A1 postemergence, corn; type: in vivo; conditions: Postemergence
Outline: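 Both timings started from seed in a loam-sand blend. Preemergence pots got a directed soil application immediately; postemergence pots were sprayed when seedlings had one or two leaves and stood 2–10 cm. Each compound was prepared in a non-phytotoxic solvent plus surfactant.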

[1] = 31 g ai/ha, 0 to 100 scale (0 no effect, 100 complete control), 10 days

Row | Compound | Plant response rating, Rice (0 to 100 scale, 0 is no effect, 100 is complete control) (rice (Oryza sativa)) | Plant response rating, Corn (corn (Zea mays); [1]) | Plant response rating, Corn (corn (Zea mays); 125 g ai/ha, 0 to 100 scale)
1 | Cc1cc(C(F)(F)F)c(C2=NOC3CCCC23)cc1NS(=O)(=O)C(F)(F)F (stereo not drawn) [Compound 306] | 0 | 0 | 0
2 | CCC1ON=C(c2cc(NS(=O)(=O)C(F)(F)F)c(C)cc2C)C1CC (stereo not drawn) [Compound 343] | 40 | 10 | 40
3 | Cc1cc(C)c(C2=NOC3CCCCCC23)cc1NS(=O)(=O)C(F)(F)F (stereo not drawn) [Compound 292] | 0 | 0 | 0
4 | Cc1cc(C)c(N(COC(=O)C(C)(C)C)S(=O)(=O)C(F)(F)F)cc1C(=O)N1CCC(C)CC1 [Compound 353] | 20 | 0 | 0
5 | Cc1cc(C2CC2)c(NS(=O)(=O)C(F)(F)F)cc1C1=NOC2(CCCC2)C1 [Compound 313] | 0 | 0 | 0
6 | Cc1c(NS(=O)(=O)C(F)(F)F)cc(C(=O)N2CCC(F)(F)CC2)c(C)c1C [Compound 357] | 10 | 0 | 0
7 | Cc1c(C(=O)N2C[C@@H](C)O[C@@H](C)C2)cc(N(COC(=O)C(C)(C)C)S(=O)(=O)C(F)(F)F)c(C)c1C [Compound 331] | 0 | 10 | 50
8 | Cc1cc(C)c(N(COC(=O)C(C)(C)C)S(=O)(=O)C(F)(F)F)cc1C1=NOC2CCCCCC12 (single isomer, unassigned) [Compound 294] | 0 | 10 | 20
9 | CCC1ON=C(c2cc(N(C(=O)OCC(C)C)S(=O)(=O)C(F)(F)F)c(C)cc2C)C1CC (stereo not drawn) [Compound 345] | 25 | 0 | 50
10 | Cc1c(NS(=O)(=O)C(F)(F)F)cc(C2=NOC3CCCC23)c(C)c1C (stereo not drawn) [Compound 335] | 45 | 0 | 0
11 | Cc1c(C(=O)N2CCC(F)(F)CC2)cc(N(COC(=O)C(C)(C)C)S(=O)(=O)C(F)(F)F)c(C)c1C [Compound 360] | 25 | 0 | 0
12 | COCC1CC(c2cc(N(COC(=O)C(C)(C)C)S(=O)(=O)C(F)(F)F)c(C)cc2C)=NO1 (stereo not drawn) [Compound 338] | 20 | 10 | 30
13 | CCc1cc(C)c(C2=NOC3(CCCC3)C2)cc1NS(=O)(=O)C(F)(F)F [Compound 311] | 0 | 0 | 0
14 | CCC1ON=C(c2cc(N(COC(=O)C(C)(C)C)S(=O)(=O)C(F)(F)F)c(C)cc2C)C1CC (stereo not drawn) [Compound 344] | 40 | 20 | 50
15 | COC(=O)OCN(c1cc(C2=NOC3CCCC23)c(C)cc1C)S(=O)(=O)C(F)(F)F (stereo not drawn) [Compound 315] | 35 | 20 | 20
16 | Cc1c(NS(=O)(=O)C(F)(F)F)cc(C(=O)N2CC(C)OC(C)C2)c(C)c1C (stereo not drawn) [Compound 328] | 0 | 0 | 50

Row | Compound | Plant response rating, Rice (0 to 100 scale, 0 is no effect, 100 is complete control) (rice (Oryza sativa)) | Plant response rating, Corn (corn (Zea mays); [1]) | Plant response rating, Corn (corn (Zea mays); 125 g ai/ha, 0 to 100 scale)
17 | CCOC(=O)N(c1cc(C(=O)N2CCCCC2)c(C)c(C)c1C)S(=O)(=O)C(F)(F)F [Compound 330, Ethyl N-[(trifluoromethyl)sulfonyl]-N-[2,3,4-trimethyl-5-(1-piperidinylcarbonyl)phenyl]carbamate] | 0 | 0 | 10
18 | Cc1c(C(=O)N2CCOCC2)cc(NS(=O)(=O)C(F)(F)F)c(Cl)c1F [Compound 321] | 10 | 10 | 20
19 | Cc1c(C(=O)N2CCCCC2)cc(NS(=O)(=O)C(F)(F)F)c(Cl)c1F [Compound 333] | 0 | 0 | 0
20 | Cc1cc(C)c(N(COC(=O)OC(C)C)S(=O)(=O)C(F)(F)F)cc1C1=NOC2CCCC12 (stereo not drawn) [Compound 314] | 25 | 0 | 30
21 | Cc1c(C(=O)N2CCC(F)CC2)cc(N(COC(=O)C(C)(C)C)S(=O)(=O)C(F)(F)F)c(C)c1C [Compound 361] | 35 | 0 | 40
22 | Cc1cc(F)c(NS(=O)(=O)C(F)(F)F)cc1C1=NOC2(CCCC2)C1 [Compound 303] | 0 | 0 | 40
23 | Cc1c(C2=NO[C@@H]3CCC[C@H]23)cc(N(COC(=O)C(C)(C)C)S(=O)(=O)C(F)(F)F)c(C)c1C [Compound 336, [[(Trifluoromethyl)sulfonyl][2,3,4-trimethyl-5-[(3aR,6aR)-3a,5,6,6a-tetrahydro-4H-cyclopent[d]isoxazol-3-yl]phenyl]amino]methyl 2,2-dimethylpropanoate] | 45 | 0 | 0
24 | COc1cc(C)c(C2=NOC3(CCCC3)C2)cc1NS(=O)(=O)C(F)(F)F [Compound 304] | 0 | 0 | 20
25 | CCOC(=O)N(c1cc(C(=O)N2C[C@@H](C)O[C@@H](C)C2)c(C)c(C)c1C)S(=O)(=O)C(F)(F)F [Compound 332] | 0 | 0 | 50
26 | CCOC1CC(c2cc(N(COC(=O)C(C)(C)C)S(=O)(=O)C(F)(F)F)c(C)cc2C)=NO1 (stereo not drawn) [Compound 339] | 20 | 0 | 30
27 | Cc1c(NS(=O)(=O)C(F)(F)F)cc(C(=O)N2CCOCC2)c(C)c1C [Compound 289, 1,1,1-Trifluoro-N-[2,3,4-trimethyl-5-(4-morpholinylcarbonyl)phenyl]methanesulfonamide] | 10 | 0 | 20
28 | CCOC(=O)N(c1cc(C(=O)N2CCOCC2)c(C)c(C)c1C)S(=O)(=O)C(F)(F)F [Compound 325] | 15 | 10 | 30
29 | Cc1cc(C)c(N(COC(=O)C(C)(C)C)S(=O)(=O)C(F)(F)F)cc1C(=O)N1CCC(F)(F)CC1 [Compound 350] | 35 | 0 | 0
30 | Cc1cc(Br)c(C2=NOC3CCCC23)cc1NS(=O)(=O)C(F)(F)F (stereo not drawn) [Compound 302] | 0 | 0 | 0
31 | COCC1CC(c2cc(NS(=O)(=O)C(F)(F)F)c(C)cc2C)=NO1 (stereo not drawn) [Compound 319] | 30 | 10 | 80
32 | Cc1cc(C)c(C2=NOC3COCC23)cc1NS(=O)(=O)C(F)(F)F (stereo not drawn) [Compound 297] | 0 | 0 | 0
